Experiment [1] has as its system long term potentiation. As to conditions: literature; cited from earlier work.
Experiment [2] has as its system susceptible rats (PTSD-like). Put plainly: Rat PTSD model (predator scent, incubation of fear): freezing behavior in open field after third reminder. It is filed as in vivo, Sprague-Dawley rats. As for the experimental part: Adult male Sprague-Dawley rats (250-270 gr; Harlan, Rehovot, Israel) were used and housed under conditions of constant temperature (22° C.) and 50% humidity, with a 12-h light-12-h dark cycle. The rats were allowed to habituate to the animal house for 7 days (acclimation). They were housed three per cage, two experimental rats together with a third companion rat. The same three rats remained together until the end of the study. Food and water were provided ad libitum. All experiments were performed between 08:00 and 14:00 in daylight. All animal procedures were approved by the Bar-Ilan University Animal Care Committee and were carried out in accordance with the NIH Guide for the Care and Use of Laboratory Animals.
The model used in this research is based on Kesner et al., 2009^32. This model consists of several stages encompassing […], detailed below and depicted in FIG. 1. The animals are analyzed according to three clinically-relevant clusters of symptoms: manifestation of freezing behavior when (a) situated alone in an open field paradigm (re-experiencing), (b) situated with a habituated companion (social interaction) and (c) after exposure to a hyperarousal event^33. The range of each measured behavioral procedure was determined for all animals after the base-line (week 3). The data collected at baseline was analyzed and the explore procedure was applied using SPSS 11 to define the range of the population. The upper and lower levels of this range were treated as ‘normal baseline’ and alterations from this range were used to define PTSD-like behavior (susceptible).
Each experimental or naive rat was habituated for 7 days to their home cage (the first week of the habituation). For the first stage of the experiment each experimental or naive rat was habituated for 7 days to an open field apparatus together with a companion rat from their home cage, 5 min per day for 7 days (the second week of the experiment). The open field apparatus was a 90×90×30 cm Plexiglas box, which was placed under a camera. The video and computer equipment were situated in a separate room where all video and observation analyses were performed.
After 14 days (Day 1) of habituation, baseline freezing levels of experimental and naive rats were measured prior to stress exposure. Behavioral parameters and measurements are described below (Behavioral Measurements section).
One week later (Day 7), experimental rats were exposed to stress, i.e. predator scent. Individual rats were placed for 30 min in a clean plastic cylinder (diameter: 30 cm, height: 33 cm) containing 125 ml of well-soiled cat litter, used by a cat during the 24 h prior to the experiment. After exposure to stress, each rat was transferred to the open field, and three behavioral parameters were measured (as described in the Behavioral Measurements section below). The cylinder was cleaned between testing of each rat. Temperature and humidity conditions in the stress exposure area were identical to those in the housing cages and open field. The companion rats were not exposed to stress, and were housed in separate cages in a separate housing area during all experiments. The same cat was used for the litter introduced during initial exposure.
One week later (Day 14), rats were re-exposed for 30 minutes to litter with the same texture, but without the cat scent. Behavioral parameters were subsequently tested (as described below).
Three weeks later (Day 35), rats were again exposed for 30 min to litter with the same texture and without cat scent. Behavioral parameters were subsequently tested (as described below). Behavioral data for this testing stage were analyzed according to the division criteria detailed below. Based on the obtained results, experimental rats were defined as either susceptible or resilient.
After exposure to cat litter, each rat was placed in the open field for measurement of PTSD-like behavior. […]

In experiment [3] the test system is Beta estradiol downstream pathway. Put plainly: Pathway analysis of upstream regulators of differentially methylated genes. The arrangement: species or system Sprague-Dawley rats. As to conditions: susceptible animals treated with SAM relative to susceptible treated with saline; FIG. 6B. The text has this: If DNA methylation plays a causal role in PTSD, comparative analysis of upstream regulators of genes whose DNA methylation is different in control, susceptible, resilient and SAM treated animals could reveal important putative new pathways and networks involved in PTSD molecular pathology that are candidates for therapeutic intervention (FIG. 6A). […] Other up-regulators of differentially methylated genes are presented in the Heatmap. These pathways are relevant to anxiety and memory pathways such as: sex hormones, glucocorticoid and different cytokines.
In reference to FIG. 6, “A” is coloring representing the p value of each group for the different “upstream-regulator” regulated pathways. Light blue represents low activation and dark blue represents high activation of the pathway. Grey represents pathways that didn't change. Yellow lines and boxes represent sex hormone dependent pathways, blue lines and boxes represent cytokine regulated pathways, pink lines and boxes represent glucocorticoids regulated pathways and green lines and boxes represent retinoic acid (vitamin A) regulated pathways. “B” is circular heat maps representing the different pathways that are influenced by a specific “upstream-upregulator” and are altered in PTSD susceptible and resistant animals. […]

Experiment [4] concerns DNA methylation profile in the NAc. Nature of the experiment: Capture bisulfite sequencing and DNA methylation mapping of nucleus accumbens after SAM treatment. It is filed as in vivo, Sprague-Dawley rats. As for the experimental part:
(§1) Brains were removed immediately after exposure to litter with cat scent immediately after Re3. Each brain was placed in a Perspex brain matrix and sliced into 1.0 mm segments. The NAc was punched out using a micro dissecting needle of 13-14 G. Brain tissue was frozen at −70° C. until DNA and RNA extraction.
Genomic DNA was extracted using All Prep DNA/RNA Micro Kit, Qiagen (Hilden, Germany)
The SeqCap Epi Enrichment System was used for target bisulfite sequencing of promoters and enhancers in the rat genome. The rat (rn4) target probes were custom designed by utilizing H3K4me1 and H3K4me3 (indicating enhancers and promoters respectively) signals from mouse samples as there is no currently available ChIP data of H3K4me1 and H3K4me3 with respect to the rat species. PuttivH3K4me1 and me3 were selected by mapping and aligning genomic fragments from mouse to the rat and retaining any fragments that share a high similarity and the subsequent associated signals. A total of 53374 target probes have been designed spanning 48072248 base pairs of sequence with a mean probe size of 900 bp. Biotinylated target probes were designed for both strands of bisulfite converted genomic DNA. Bisulfite treated genomic DNA is ligated to methylated NGS adaptors, hybridized to the biotinylated oligonucleotide probes which is followed by a series of washes of off-target DNA sequences and unbound DNA. The resulting isolated specific DNA then undergoes PCR amplification for downstream sequencing on Illumina Hiseq 2000 sequencer. Capture and hybridization is performed as a service for fee by ICRM in Montreal licensed by Roche/Nimblegen. The following bioinformatics workflow is used in the lab. Quality control is done using FastQC to assess sequencing scores and other quality metrics. If necessary, trimming of raw file is performed using Trimmomatic to remove low scoring sequencing results and/or adapter contents. Sequences are aligned to rn4 rat reference genome using Bsmap v2.89. A typical alignment rate of 90%-95% is achieved (30× coverage). The resulting sequencing alignment file (SAM) is converted to binary alignment format (BAM) for downstream analysis and filtering. BAM files are split, merged, and sorted by strand for additional downstream filtering and analysis. Duplicate reads within the BAM files are removed via Picard Tools (v1.93, BROAD institute) strand-specifically and the separate BAM files are merged back together and examined by Bamtools to assess whether the sequences are properly mapped to genome, whether both paired end reads exist (for paired end sequencing), and whether paired end reads are properly paired to each other (for paired end sequencing). Using the final BAM file, methylation ratios and coverage is recovered by provided scripts within Bsmap as well as methylation context. Annotation of genomic locations is performed by HOMER. Computation of differential methylation sites and tiled windows of differentially methylated regions was performed using a logistic regression method with the Methylkit R package in Bioconductor1. FDR adjusted P value significance threshold is held at <0.2.
NAcs were isolated from the animals (n=4-7 per group) following the third reminder and DNA and RNA were extracted as described in the methods. DNA was bisulfite converted, enriched using capture arrays for all predicted promoters and enhancers in the rat genome and was then subjected to next generation sequencing. […]

Experiment [5] has as its system RORA mRNA. Nature of the experiment: RORA mRNA expression in nucleus accumbens following the third reminder. It is filed as in vivo, Sprague-Dawley rats. Particulars: NAc following Re3; SAM vs saline; FIG. 6C. As for the experimental part:
as §1
The retinoic biosynthesis and degradation pathway was also enriched with differentially methylated genes. In the susceptible group there was an enrichment in downstream targets of the RAR-Related Orphan Receptor A (RORA), however the impact on level of activity of this pathway could not be derived from this analysis (FIG. 6B). Therefore, the levels of RORA mRNA expression in the different groups was first determined. RORA mRNA expression levels were higher in either control or resilient animals treated with either saline or SAM than in susceptible animals (*p<0.05, *p<0.05 and **p<0.01 respectively) (FIG. 6C), consistent with the possibility that this gene is involved in the pathology of PTSD. […] Therefore, it was hypothesized that the RORA pathway is involved in the hyperarousal behavior which is resistant to SAM's treatment and characteristic of the susceptible PTSD group. The correlation between the mRNA expression of RORA and the three behavioral tests was first measured; as hypothesized, only the hyperarousal behavior was correlated with the mRNA expression of RORA (FIG. 6D). […]

[6] abbreviates: susceptible-SAM vs susceptible-saline rats, threshold >10, Q value 0.2, FIG. 4A.

`Nc1ncn([C@H]2C[C@H](O)[C@@H](CO)O2)c(=O)n1` [5-aza-2-deoxycytidine]: in experiment [1], the “effect on long term potentiation” value is recorded as “inhibited long term potentiation”.
Consider `C[S+](CC[C@H](N)C(=O)O)C[C@H]1O[C@@H](n2cnc3c(N)ncnc32)[C@H](O)[C@@H]1O` (stereo partly drawn) [SAM, S-adenosylmethionine], for which the “freezing behavior during the 'exploration' test” value in experiment [2] (Embodiment 2, susceptible rats, SAM 25 mg/kg i.p. 24 h and 1 h before Re-3, vs susceptible-saline, FIG. 3A) is recorded as “significantly decreased”; in experiment [2] (Embodiment 4, susceptible rats, SAM 25 mg/kg and/or retinoic acid 2 mg/kg i.p. 24 h and 1 h before Re-3, vs susceptible-RA and susceptible-saline, FIG. 7A), “significantly decreased”. For the same compound, the “freezing behavior during the 'social interaction' test” value is given as “significantly decreased” in experiment [2] (Embodiment 2, susceptible rats, SAM 25 mg/kg i.p. 24 h and 1 h before Re-3, vs susceptible-saline, FIG. 3B); “significantly decreased” in experiment [2] (Embodiment 4, susceptible rats, SAM 25 mg/kg and/or retinoic acid 2 mg/kg i.p. 24 h and 1 h before Re-3, vs susceptible-RA and susceptible-saline, FIG. 7B). Further, the “freezing behavior during the 'hyperarousal' test” value in experiment [2] (Embodiment 2, susceptible rats, SAM 25 mg/kg i.p. 24 h and 1 h before Re-3, vs susceptible-saline, FIG. 3C) is “no difference in freezing behavior”. The “fold change in freezing behavior in 'exploration' and 'social interaction' tests (from Re-2 to Re-3)” value in experiment [2] (susceptible-treated rats, FIG. 3D-G) is listed as “effective in reducing these behaviors”. Moreover, in experiment [2] (susceptible-treated rats, FIG. 3H-I), the “fold change in freezing behavior in the 'hyperarousal' test (from Re-2 to Re-3)” value is given as “ineffective in changing freezing behavior”. Besides, the “state of activity of Beta estradiol downstream pathway” value in experiment [3] is “inhibited”. For the same compound, the “CGs sites differentially methylated in the susceptible animals and reversed by the SAM treatment” value in experiment [4] (FIG. 4A-B) worked out at 140 CGs sites. Further, in experiment [4] (FIG. 4C-D), the “CG sites differentially methylated in both the susceptible and the resilient rats affected by SAM” value stood at 38 CG sites. Also, the “fraction of total susceptible sites reversed by SAM treatment” value in experiment [4] (sites altered in susceptible rats relative to controls) is given as 30%. The “CGs sites that were de-methylated” value in experiment [4] (setting [6]) worked out at 599 CGs sites. Also, the “CGs sites that were hyper-methylated” value in experiment [4] (setting [6]) was 363 CGs sites. Besides, in experiment [5], the “level of expression of RORA (mRNA)” value was “no effect”.

These data come from patent US20190038587A1, “DNA Methylation Landscapes of Post-Traumatic Stress Disorder (PTSD) Susceptibility and Resilience and Novel Therapeutics of PTSD Derived Thereof” (priority 2016, published 2019).
